Results reported in patent US20220235057A1, “CYCLIC FORMYL AND CYCLIC KETONE COMPOUNDS, PREPARATION METHOD THEREFOR, AND PHARMACEUTICAL USE” (priority 2019, published 2022).
Converted amounts (≈) assume the structure as drawn.

Tests used:
Format in all cases: cell-based
[1] = test system: Zika virus; assay: anti-Zika virus activity (EC50)
[2] = test system: dengue virus (DENV); assay: anti-dengue virus activity (EC50)
[3] = test system: drug resistant strains of Acinetobacter baumannii; assay: anti-drug resistant strains of Acinetobacter baumannii (MIC)
[4] = test system: Usutu virus (USUV); assay: anti-Usutu virus activity (inhibition rate); details: Usutu virus
[5] = test system: Zika virus (ZIKV); assay: anti-Zika virus activity (inhibition rate); details: Zika virus; Drug concentration 11 μM

SMILES | EC50 [2] [nM] | further results
COc1ccc(C2c3c([nH]c4ccccc34)C(=O)N2Nc2ccc([N+](=O)[O-])cc2)cc1OC (stereo not drawn) [ZFD-33A + B] |  | EC50 [1]: 17200 nM
O=C(NNc1ccccc1)C1CCc2ccccc2N1 (stereo not drawn) [ZXD-44] | 1500 | MIC ([3]; resistant strain of Acinetobacter baumannii no. 17): 4 µg/mL (≈ 15 µM); MIC ([3]; resistant strain of Acinetobacter baumannii no. 18): 8 µg/mL (≈ 29.9 µM); MIC ([3]; resistant strain of Acinetobacter baumannii no. 19): 8 µg/mL (≈ 29.9 µM); MIC ([3]; resistant strain of Acinetobacter baumannii no. 20): 2 µg/mL (≈ 7.48 µM)
O=C1C2CCc3ccccc3N2C(c2ccc(Cl)cc2)N1Nc1ccccc1 (stereo not drawn) [ZXD-87A] |  | EC50 [1]: 3400 ± 380 nM
C=C(C)c1ccc(C2N(Nc3ccccc3)C(=O)C3CCc4ccccc4N32)cc1 (stereo not drawn) [ZXD-89A] | 740 | 
O=C1[C@H]2CCc3ccccc3N2C(Cc2ccc([N+](=O)[O-])cc2)N1Nc1ccccc1 (stereo partly drawn) [ZXD-100A] | 2000 | 
O=C1[C@@H]2CCc3ccccc3N2[C@@H](Cc2ccc([N+](=O)[O-])cc2)N1Nc1ccccc1 [ZXD-100B] | 850 | 
O=C1[C@@H]2CCc3ccccc3N2[C@@H](c2ccccc2)N1Nc1ccc([N+](=O)[O-])cc1 [ZXD-106] | 5200 | 
O=C1[C@@H]2CCc3ccccc3N2[C@@H](Cc2ccccc2)N1Nc1ccc([N+](=O)[O-])cc1 [ZXD-107A] | 120 | inhibition at 11 µM ([4]; Drug concentration 11 μM): < 0%; inhibition at 33 µM ([4]; Drug concentration 33 μM): < 0%; inhibition at 11 µM [5]: > 100%
O=C1[C@@H]2CCc3ccccc3N2[C@@H](c2ccccc2O)N1Nc1ccccc1 [ZXD-120B] | 6500 | 
O=C1[C@@H]2CCc3ccccc3N2[C@@H](Cc2ccc(O)cc2)N1Nc1ccccc1 [ZXD-127B] | 5200 | 
CC(C)(C)[Si](C)(C)Oc1ccc(C2N(Nc3ccc([N+](=O)[O-])cc3)C(=O)C3CCc4ccccc4N32)cc1 (stereo not drawn) [ZXD-132A] | 640 | 
O=C1C2CCc3ccccc3N2C(c2ccc(O)cc2)N1Nc1ccc([N+](=O)[O-])cc1 (stereo not drawn) [ZXD-133A] | 19500 | 
COc1cc(C2N(Nc3ccccc3)C(=O)C3CCc4ccccc4N32)ccc1O[Si](C)(C)C(C)(C)C (stereo not drawn) [ZXD-142A] | 1600 | EC50 [1]: 1560 ± 210 nM
